As a reminder, the IC50 is the concentration that inhibits the measured activity by half. The EC50 is the midpoint of the concentration-response curve.

6 molecules from patent publication US9365591B2, “Fluoroergoline analogs” (MAP Pharmaceuticals, Inc., priority 2011, dated 2016) can be followed below.

SMILES strings stand for the structures. “Also recorded” adds a separate entry of the source.

Series [1] concerns the target T1, human 5-HT2B receptor (Homo sapiens, UniProt P41595).
T1 construct: host or cells: CHO-K1
Briefly: Aequorin assay, agonist activity at the 5-HT2B receptor. Type of series: cell-based. On the procedure: Percentage activation values were determined for 2-CF3 dihydroergotamine at the 5-HT2B receptor.

For series [2], the target named is T1, human 5-HT2B receptor. Briefly: Aequorin assay, competitive antagonist activity at the 5-HT2B receptor. The series is classed as cell-based. On the procedure:
Percentage inhibition values were determined for 2-CF3 dihydroergotamine on the 5-HT2B receptor.

Series [3] can be described thus: Metabolism in human liver microsomes. Particulars: 1 μM, 37° C., 0-60 min; for metabolism by human liver microsomes in the presence of NADPH: 0.2 mg protein/mL. On the procedure:
Metabolism of dihydroergotamine (DHE) and 2-CF3 DHE was evaluated in human liver microsomes. DHE mesylate and 2-CF3 DHE mesylate (1 μM each) were incubated separately with human liver microsomes (0.2 mg protein/mL) in triplicate at 37° C. in 0.2 mL (final volume) incubation buffer (50 mM potassium phosphate buffer, pH 7.4, 3 mM MgCl2 and 1 mM EDTA, pH 7.4) with or without cofactor, NADPH-generating system. The NADPH-generating system consisted of 1 mM NADPH, pH 7.4, 5 mM glucose-6-phosphate, pH 7.4 and 1 unit/mL glucose-6-phosphate dehydrogenase. DHE was added to the incubation mixtures in water. 2-CF3-DHE was added to incubation mixtures in 50:50 (v:v) acetonitrile:water. A low level of acetonitrile in the incubation was maintained to avoid any solvent effects on enzyme activity (typically at 0.5% or lower). Reactions were initiated by the addition of the NADPH-generating system and were terminated at 0, 15, 30 and 60 minutes after initiation by the addition of 175 μL of stop reagent (acetonitrile) containing two internal standards (4′-hydroxydiclofenac-d4 and 1′-hydroxymidazolam-d4, 200 and 50 ng/mL in the final stopped incubation, respectively). The samples were then centrifuged and the supernatant fractions were analyzed by LC/MS/MS to quantify the formation of 8′-OH-DHE (metabolite) in the DHE samples and DHE and 8′-OH-DHE in the 2-CF3-DHE samples.
In general terms: Liver microsomes are vesicles of endoplasmic reticulum, rich in cytochrome P450 enzymes.

A further series concerns Salmonella typhimurium. Briefly: Genotoxicity study, reversion of histidine-requiring Salmonella typhimurium strains. The series is classed as cell-based. Particulars: five histidine-requiring strains, absence and presence of a rat liver metabolizing system; Dunnett's test, 1% level. On the procedure: Genotoxicity studies were performed to evaluate the potential mutagenic activity of 2-CF3-DHE. Studies were performed to examine the ability of 2-CF3-DHE to revert five histidine-requiring strains of Salmonella typhimurium in the absence and presence of a rat liver metabolizing system. […] This is consistent with the conclusion that there was no evidence of any mutagenic activity observed with 2-CF3-DHE.

In the next series the test system is human coronary arteries. Briefly: Constriction assay, human coronary arteries. Particulars: CCRC 100 pM to 10 μM in half-log steps, n=6. On the procedure: (§1) Human coronary arteries and saphenous veins were set up under isometric conditions on either small vessel wire myographs or organ baths, depending on vessel size, in order to examine the influence of the test article on the relative changes in tension. In order to assess tissue viability, the vessel segments were constricted with a high potassium solution (KPSS, 62.5 mM) three times. Vessels were then pre-constricted with sumatriptan (1 μM) and endothelium-dependent vasorelaxation investigated using bradykinin (10 μM). […] All vessels were fully relaxed at the end of the experiment using forskolin (10 μM).
(§2) Coronary arteries and small saphenous veins, having been cut into ring segments of approximately 2 mm length, were attached by 40 μm diameter wire running through the lumen of the vessel to stainless steel heads in 5 mL myograph baths containing PSS (physiological saline solution), aerated with 95% 02 and 5% CO2 and maintained at a temperature of 37° C. Changes in tension were recorded using a Danish Myotech isometric transducer. The vessel segments were allowed to equilibrate for at least 30 minutes after set up. Segments were processed through a standardization procedure of tension application, which reduces signal variability and allows for optimal tissue response to be obtained prior the pharmacological intervention. […]

The next series deals with human saphenous veins. Briefly: Constriction assay, human saphenous veins. Particulars: CCRC 100 pM to 10 μM, 6 donors. On the procedure:
as §1, §2

T1 sequence (P41595 whole entry): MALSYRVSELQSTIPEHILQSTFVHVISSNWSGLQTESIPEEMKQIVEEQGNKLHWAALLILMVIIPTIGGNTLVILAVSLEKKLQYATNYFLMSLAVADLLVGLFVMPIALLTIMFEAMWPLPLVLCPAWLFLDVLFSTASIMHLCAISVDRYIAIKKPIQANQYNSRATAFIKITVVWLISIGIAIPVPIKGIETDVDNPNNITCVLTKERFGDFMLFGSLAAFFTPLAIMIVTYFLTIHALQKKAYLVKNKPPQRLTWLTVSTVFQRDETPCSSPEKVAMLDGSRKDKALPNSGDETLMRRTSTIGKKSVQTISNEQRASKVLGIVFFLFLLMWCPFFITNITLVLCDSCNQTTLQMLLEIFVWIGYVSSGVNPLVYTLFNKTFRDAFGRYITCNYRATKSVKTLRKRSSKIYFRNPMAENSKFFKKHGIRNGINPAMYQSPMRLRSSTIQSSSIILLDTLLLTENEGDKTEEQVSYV

As to `CN1C[C@H](C(=O)N[C@]2(C)O[C@@]3(O)C4CCCN4C(=O)[C@H](Cc4ccccc4)N3C2=O)CC2c3cccc4[nH]c(C(F)(F)F)c(c34)CC21` (stereo partly drawn) [2-CF3-dihydroergotamine], the “agonist activity at the 5-HT2B receptor” value at human 5-HT2B receptor [1] (0.01 nM to 20,000 nM, compared with Emax of α-methyl-5-HT) is “no agonist activity; also recorded: little agonist activity”. For the same molecule, the “antagonism of the 5-HT2B receptor” value on human 5-HT2B receptor [2] (FIG. 2) is given as “potent antagonism”.

Turning to `CN1C[C@H](C(=O)N[C@]2(C)O[C@@]3(O)[C@@H]4CCCN4C(=O)[C@H](Cc4ccccc4)N3C2=O)CC2c3cccc4[nH]c(C(F)(F)F)c(c34)CC21` (stereo partly drawn) [2-CF3-dihydroergotamine], the “metabolism by human liver microsomes in the presence of NADPH” value in series [3] (listed as 2-CF3-DHE) is “extensively metabolized”. Also, the “intrinsic clearance, slower than that of DHE” value in series [3] (human liver microsomes 0.2 mg protein/mL, with NADPH) is “about 85%”. In the series with Salmonella typhimurium, the “mutagenic activity, revertant numbers” value is recorded as “no statistically significant increases in the revertant numbers”. In addition, the “change in tension, coronary arteries” value with human coronary arteries (listed as 2-CF3-DHE) is given as “only a very slight mean increase in tension; also recorded: slight mean increase in tension”. In addition, in the series on human saphenous veins, the “change in tension, saphenous veins” value was “no change in tension”.

Take `Cc1cc(NC(=O)Nc2ccc3c(ccn3C)c2)sn1` [SB204741, reference compound]: the IC50 at human 5-HT2B receptor [2] (CHO-K1 cells, reference agonist at its EC50, 0.005 nM to 10,000 nM, read-out: IC50, antagonism of the 5-HT2B receptor) was found to be 0.0288 µM.

As to `CN1C[C@H](C(=O)N[C@]2(C)O[C@@]3(O)[C@@H]4CCCN4C(=O)[C@H](Cc4ccccc4)N3C2=O)C[C@@H]2c3cccc4[nH]cc(c34)C[C@H]21` [dihydroergotamine, reference compound], the “metabolism by human liver microsomes in the presence of NADPH” value in series [3] (listed as DHE) was “extensively metabolized”.

With `CNS(=O)(=O)Cc1ccc2[nH]cc(CCN(C)C)c2c1` [sumatriptan, reference compound], the EC50 in the series with human coronary arteries (Homo sapiens, read-out: EC50, constriction curve, coronary arteries) was found to be 0.112 µM; in the series on human saphenous veins (Homo sapiens, read-out: EC50, constriction curve, saphenous veins), 0.187 µM.

Turning to `CC(N)Cc1c[nH]c2ccc(O)cc12` (stereo not drawn) [α-methyl-5-HT, reference compound], the EC50 on human 5-HT2B receptor [1] (CHO-K1 cells coexpressing apoaequorin and recombinant human 5-HT2B, reference agonist, read-out: EC50, agonism of the 5-HT2B receptor) was 0.00101 µM.
